Some test systems named below: OVCAR-3; HCT-116; MDA-MB-435; SNB-19; HT-29; A549; MDA-MB-231; HCT-15; SNB-75; SR; SK-MEL-28; EKVX; NCI-H522; DU-145; A498; RPMI-8226; HOP-92; SW-620; NCI/ADR-RES; CCRF-CEM.
Assay in all cases: DTP human tumour cell line panel, 48 h

By GI50 is commonly meant the concentration at which growth is held to half of that of the control.

Where “and” joins values, the source holds several entries; their conditions need not be identical. Identical values can stand only once.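 Results reflect a 48-hour exposure of cells in 96-well plates to compound at five concentrations. The concentration for 50% growth inhibition is given as GI50.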 Calls of active or inactive are those of the source. Rule as the data show it: active = GI50 up to about 1.1 µM and inactive = higher. A value given as a limit tells only on which side of the number the result lay.

In the case of `CC(C)N1CCN(c2ccncc2S(=O)(=O)N2CCCCC2)CC1`, the GI50 with OVCAR-3, with HCT-116, in the assay on MDA-MB-435, in the assay with SNB-19, in the assay with HT-29 and with A549 was > 100 µM (inactive) throughout. The GI50 in the assay with MDA-MB-231 is > 100 µM (inactive); in the assay on HCT-15, above 100 µM; in the assay on SNB-75, > 100 µM (inactive); in the assay on SR, > 100 µM (inactive); in the assay with SK-MEL-28, > 100 µM (inactive); with EKVX, > 100 µM (inactive). Moreover, the GI50 in the assay with NCI-H522, in the assay on DU-145, with A498, in the assay on RPMI-8226, in the assay with HOP-92 and in the assay on SW-620 was > 100 µM (inactive) each time. In addition, the GI50 in the assay on NCI/ADR-RES was > 100 µM (inactive).
Regarding `CSC1NC(c2ccc(Cl)cc2)=C(C#N)C(=O)N1C1OCC(OC(C)=O)C(OC(C)=O)C1OC(C)=O` (centres undefined), the GI50 in the assay with OVCAR-3 is > 100 µM (inactive); in the assay with MDA-MB-435, > 100 µM (inactive); with SNB-19 it was > 100 µM (inactive); in the assay on HT-29, > 100 µM (inactive); in the assay on MDA-MB-231 it was > 100 µM (inactive); in the assay with HCT-15, 62.1 µM. Moreover, the GI50 with SNB-75 was > 100 µM (inactive); with SR, 24.5 µM (inactive); in the assay on SK-MEL-28, > 100 µM (inactive); in the assay with EKVX, > 100 µM (inactive); with NCI-H522, > 100 µM (inactive); in the assay with DU-145, > 100 µM (inactive). Also, the GI50 in the assay with A498 was 34.8 µM (inactive); in the assay on RPMI-8226, > 100 µM (inactive); in the assay on HOP-92, > 100 µM (inactive); with SW-620 it was > 100 µM (inactive); with NCI/ADR-RES it was > 100 µM (inactive).
Consider `Clc1ccc(C2=C(c3ccccc3)C(c3ccc(Cl)cc3)N3C(=N[C@H]4CCCC[C@@H]43)N2)cc1` (some centres undefined), for which the GI50 is 13.8 µM (inactive) in the assay on OVCAR-3; 4.08 µM (inactive) in the assay with HCT-116; 14.5 µM (inactive) with MDA-MB-435; 14.5 µM (inactive) in the assay on SNB-19; 3.58 µM (inactive) in the assay with CCRF-CEM; 3.27 µM (inactive) in the assay with HT-29. Further, the GI50 is 10.3 µM (inactive) with A549; 14.9 µM (inactive) in the assay on MDA-MB-231; 5.96 µM with HCT-15; 15.2 µM (inactive) in the assay on SNB-75; 2.09 µM (inactive) in the assay with SR; 13.7 µM (inactive) with SK-MEL-28. In addition, the GI50 with EKVX is 12.4 µM (inactive); with DU-145, 13.2 µM (inactive); in the assay on A498, 17.3 µM (inactive); in the assay with RPMI-8226 it was 2.48 µM (inactive); in the assay on HOP-92, 9.59 µM (inactive); in the assay on SW-620, 8.05 µM (inactive). Further, the GI50 with NCI/ADR-RES is 11.4 µM (inactive).
On to `C=C1C(=O)OC2CC1C(OC(C)=O)C/C(C)=C/CC/C(C)=C\CCC2(C)O` (centres undefined), for which the GI50 with OVCAR-3 was 5.93 µM (inactive) and 4.35 µM (inactive); in the assay with HCT-116, 2.08 µM (inactive) and 2.91 µM (inactive); in the assay with MDA-MB-435, 4.19 µM (inactive) and 4.68 µM (inactive); in the assay with SNB-19 it was 17.3 µM (inactive) and 15.1 µM (inactive); with A549 it was 16 µM (inactive) and 17.2 µM (inactive); in the assay on MDA-MB-231, 7.13 µM (inactive) and 8.95 µM (inactive). In addition, the GI50 in the assay on HCT-15 was 1.56 µM and 3.04 µM; with SNB-75, 11.2 µM (inactive) and 10.8 µM (inactive); in the assay with SR, 1.29 µM (inactive); with SK-MEL-28, 3.19 µM (inactive) and 2.95 µM (inactive); with EKVX it was 3.81 µM (inactive) and 3.73 µM (inactive); with NCI-H522 it was 1.44 µM (inactive) and 1.36 µM (inactive). The GI50 in the assay on DU-145 is 3.95 µM (inactive) and 5.77 µM (inactive); in the assay on A498, 5.22 µM (inactive) and 5.52 µM (inactive); in the assay on RPMI-8226, 1.9 µM (inactive) and 1.82 µM (inactive); in the assay with HOP-92, 3.65 µM (inactive) and 2.89 µM (inactive); with SW-620, 2.64 µM (inactive) and 3.4 µM (inactive); in the assay on NCI/ADR-RES it was 3.66 µM (inactive) and 3.49 µM (inactive).
Consider `O=C1/C(=C/c2cccs2)N=C(c2ccccc2)N1C1Nc2cc3c(cc2S1)NC(N1C(=O)/C(=C/c2cccs2)N=C1c1ccccc1)S3` (centres undefined), for which the GI50 in the assay on OVCAR-3 is 30.7 µM (inactive); in the assay with HCT-116, 15 µM (inactive); in the assay on MDA-MB-435, 17.7 µM (inactive); with HT-29, 25.3 µM (inactive); in the assay with A549, 14.6 µM (inactive); in the assay with MDA-MB-231 it was 30.2 µM (inactive). The GI50 is 15.6 µM in the assay on HCT-15; 25.4 µM (inactive) with SNB-75; 3.07 µM (inactive) in the assay with SR; 32.3 µM (inactive) with SK-MEL-28; 15.6 µM (inactive) in the assay on EKVX; 13.4 µM (inactive) in the assay with NCI-H522. The GI50 in the assay with DU-145 is 24.7 µM (inactive); with A498, 69.5 µM (inactive); in the assay on RPMI-8226 it was 19.8 µM (inactive); with HOP-92, > 100 µM (inactive); in the assay with SW-620, 26.9 µM (inactive); in the assay on NCI/ADR-RES, 13.9 µM (inactive).
With `CC1=C2c3c(C)ccc4ccc(C)c(c34)C2(O)C(C)C1=O` (centres undefined), the GI50 with OVCAR-3 was 37.7 µM (inactive); in the assay on HCT-116 it was 43.8 µM (inactive); in the assay on MDA-MB-435 it was 52.1 µM (inactive); in the assay with SNB-19, 44.3 µM (inactive); in the assay with HT-29, > 100 µM (inactive); in the assay with A549, 40.3 µM (inactive). The GI50 in the assay on MDA-MB-231 was 89.1 µM (inactive); in the assay on HCT-15 it was 42.8 µM; in the assay on SNB-75 it was 30.8 µM (inactive); in the assay with SR, > 100 µM (inactive); in the assay with SK-MEL-28, 84.3 µM (inactive); with EKVX it was 70.8 µM (inactive). Also, the GI50 was 47.2 µM (inactive) in the assay with NCI-H522; > 100 µM (inactive) with DU-145; > 100 µM (inactive) with A498; 33 µM (inactive) with RPMI-8226; 44.5 µM (inactive) in the assay with HOP-92; > 100 µM (inactive) in the assay with SW-620. In the assay on NCI/ADR-RES, the GI50 was 15.2 µM (inactive).
Consider `O=C1/C(=C/c2ccco2)NC(=S)N1CN1CCOCC1`, for which the GI50 in the assay with OVCAR-3, in the assay on HCT-116, in the assay on MDA-MB-435, in the assay on SNB-19, with CCRF-CEM and with HT-29 was > 100 µM (inactive) each time. Further, the GI50 was > 100 µM (inactive) in the assay on A549; > 100 µM (inactive) in the assay on MDA-MB-231; above 100 µM in the assay with HCT-15; > 100 µM (inactive) with SNB-75; > 100 µM (inactive) in the assay with SR; > 100 µM (inactive) in the assay on SK-MEL-28. Moreover, the GI50 in the assay on EKVX, in the assay on DU-145, in the assay on A498, in the assay with RPMI-8226, in the assay on HOP-92 and in the assay on SW-620 was > 100 µM (inactive) in each case. In addition, the GI50 in the assay with NCI/ADR-RES is > 100 µM (inactive).

These data come from ChEMBL document CHEMBL1201862, “PubChem BioAssay data set” (2004).
